In US6423732B1, “Synergistic combinations of cyproconazole” (Syngenta Participations AG, priority 1992, dated 2002):

What was measured:
Experiment in all cases: Wood preservation test ES 84/113, pine sapwood, weight loss of wood samples
Format in all cases: cell-based
[1] = tested on: Trametes (Coriolus) versicolor; details: substance alone
Procedure: (§1) Determination of the Activity of the Cyproconazole in Combination with Dimethyldidecylammonium Chloride Against Wood-destroying Basidiomycetes
(§2) The active substances were tested in accordance with European Testing Standards ES 84 (1979) and 113 (1986). Treatment with the active substances prevents the wood from being destroyed. The effect of the treatment is quantified indirectly via the non-existing weight loss of the wood samples.
(§3) The wood sample used was pine sapwood, and the test fungi used were Coniophora puteana (cellar fungus), Poria plazenta, Gloeophyllum trabeum and Trametes (Coriolus) versicolor. Markedly smaller amounts of the combination according to the invention of cyproconazole (A: 2-(4-chlorophenyl)-3-cyclopropyl-3-methyl-1-(1H,1,2,4-triazol-1-yl)-butan-2-ol) and dimethyldidecylammonium chloride (B1) have the same result (0% weight loss) as cyproconazole or B1 alone. Comparably good results were also obtained when beech was used as the wood sample.

Gloeophyllum trabeum = details: Gloephyllum, substance alone
Procedure: as §1, §2, §3

Poria plazenta = details: substance alone
Procedure: as §1, §2, §3

[2] = tested on: Coniophora puteana (cellar fungus); details: substance alone
Procedure: as §1, §2, §3

SMILES	Amount (g/m^3) of active Substance at 0% Weight Loss [1]	Amount (g/m^3) of active Substance at 0% Weight Loss (Gloeophyllum trabeum)	Amount (g/m^3) of active Substance at 0% Weight Loss (Poria plazenta)	Amount (g/m^3) of active Substance at 0% Weight Loss [2]
CC(C1CC1)C(O)(Cn1cncn1)c1ccc(Cl)cc1 (centres unmarked) [A]	418 g g/m^3	247 g g/m^3	243 g g/m^3	247 g g/m^3
CCCCCCCCCC[N+](C)(C)CCCCCCCCCC.[Cl-] [B1, dimethyldidecylammonium chloride]	2,675 g g/m^3	12,505 g g/m^3	3,175 g g/m^3	12,415 g g/m^3
